According to patent publication US5648367A, “Aminoalkyloximes” (Hoechst Marion Roussel, Inc., priority 1995, dated 1997):
Where a name gives a salt, the structure may show the parent alone.

System: Serotonin Reuptake
Assay: in vitro inhibition of serotonin uptake ([3H]-5HT uptake into whole rat brain synaptosomes)
Format: biochemical, rat (Male CR Wistar rats)
Details: rat whole brain (minus cerebellum) synaptosomes; 50 nM [3H]-5HT; 5 minutes at 37° C.; pH 7.4; log probit analysis
Description: See, for example, W. K. Goodman, et al., Archives of General Psychiatry, 47, 577 (1990). […] In this assay, a modification of the tests described by A. S. Horn and R. C. A. M. Trace, British Journal of Pharmacology, 51, 399 (1974), A. Nagy and A. V. Delgado-Escueta, Journal of Neurochemistry, 43, 1114 (1984) and P. R. Dunkley, et al., Brain Research, 372, 115 (1986), the following reagents are prepared and employed:
Male CR Wistar rats (100-125 g)
3. Sucrose solution: 0.32M sucrose containing 5 mM HEPES and 0.1 mM EDTA; pH to 7.3 using Tris base.
4. A 0.1 mM stock solution of serotonin creatinine SO4 is made up in 0.01N HCl. This is used to dilute the specific activity of radiolabeled 5HT.
5. 5-[1,2-^3 H(N)]-Hydroxytryptamine creatinine sulfate (serotonin), specific activity 20-30 Ci/mmol, is used. The final desired concentration of [^3 H]-5HT in the assay is 50 nM. The dilution factor is 0.8. The KHBB is made up to contain 62.5 nM of [^3 H]-5HT.
6. For most assays, a 0.5 mM stock solution of the test compound is made up initially in either 10 μl of glacial acetic acid, 100 μl DMSO or 10 μl of the recrystallization solvent, to which is added approximately 10 ml of distilled water. Compounds are initially screened in duplicate at 3 concentrations (10^-8, 10^-7 and 10^-6 M) made up in water. […] To ensure consistency, the standard clomipramine is run with each assay.
Male Wistar rats are decapitated and the brain rapidly removed. Whole brain (minus cerebellum) is weighed and homogenized in 15 volumes of ice cold sucrose solution using a Potter-Elvejhem homogenizer. The following procedures are performed on ice. Homogenization should be done with 4-5 up and down strokes at medium speeds (setting 4.5 to 5) to minimize synaptosome lysis. The homogenate is centrifuged at 1000 g (3000 rpm, Sorvall SS-34 rotor) for 10 minutes at 0°-4° C. The supernatant is removed and approximately 10 ml per tube is carefully layered onto a discontinuous Percoll (Sigma cat# P-1644) gradient: 21% Percoll in sucrose solution at the bottom (15 ml per tube) and 10% Percoll in the middle (10 ml; colored with a few drops of phenol red for visibility).
The Percoil gradient tubes are carefully placed into a Beckman SW-28 swinging bucket rotor and spun in a Beckman XL90 ultracentrifuge using the following program: speed, 11,000 rpm (15,000 g) for 30 minutes at 4° C.; slow acceleration and deceleration (acceleration setting 9; deceleration setting 3). Tubes are carefully removed, and the top layer and the top part of the middle (red) layers are discarded using a pasteur pipette. The synaptosomes are located in the white fluffy band at the interface between the 10% and 21% Percoll layers. This is carefully removed, placed in a centrifuge tube, diluted with KHBB and spun at 21,000 g (13,000 rpm, Sorvall SS-34 rotor). The pellet (synaptosomes) is resuspended in KHBB (10 vol per gram original brain wet weight; 1 brain minus cerebellum weighs approximately 1.2 g; 2.5 brains are needed per typical assay).
20 μl Vehicle or appropriate drug
200 μl of the tissue suspension are added to each of 24 tubes (at a time) containing the 20 μl of vehicle or drug on ice. Three minutes later, 800 μl of KHBB containing [^3 H]-5HT are added, and tubes are vortexed. The rack containing the 24 tubes is moved from the ice bath to a water bath set at 37° C. The tubes are incubated for 5 minutes under 95% oxygen/5% carbon dioxide. Uptake is terminated by filtration through GF/B filter strips using a Brandel cell harvester (filter strips are presoaked in ice cold filtration buffer). Tubes are washed once with 5 ml of ice cold filtration buffer. Filter disks are placed in scintillation vials to which are added 10 ml of scintillation fluid (EcoScint). Filters are allowed to sit overnight before being counted.
For each assay, 3 tubes are incubated with 20 μl of vehicle at both 37° C. and 0° C.

Compound | IC50 [nM]
NCCON=C(CCCn1ccnc1)c1ccc(C(F)(F)F)cc1 [4-(1-(1H)-Imidazolyl)-1-(4-trifluoromethylphenyl)-1-butanone O-(2-aminoethyl)oxime dihydrochloride] | 80
COc1ccc(C(CCn2ccnc2)=NOCCN)cc1 [4'-Methoxy-3-(1-(1H)-imidazolyl)propiophenone O-(2-aminoethyl)oxime difumarate hydrate] | 1280
NCCON=C(CCCn1ccnc1)c1ccc(Cl)cc1 [1-(4-Chlorophenyl)-4-(1-(1H)-imidazolyl)-1-butanone O-(2-aminoethyl)oxime dihydrochloride] | 160
NCCON=C(CCCn1ccnc1)c1ccc(F)cc1 [1-(4-Fluorophenyl)-4-(1-(1H)-imidazolyl)-1-butanone O-(2-aminoethyl)oxime dihydrochloride] | 257
NCCON=C(CCn1ccnc1)c1ccc(C(F)(F)F)cc1 [3-(1-(1H)-Imidazolyl)-1-(4-trifluoromethylphenyl)-1-propanone O-(2-aminoethyl)oxime dihydrochloride] | 164
NCCON=C(CCn1ccnc1)c1ccc(Cl)cc1 [4'-Chloro-3-(1-(1H)-imidazolyl)propiophenone O-(2-aminoethyl)oxime difumarate] | 128
NCCON=C(CCCn1ccnc1)c1ccccc1 [4-(1-(1H)-Imidazolyl)-1-phenyl-1-butanone O-(2-aminoethyl)oxime dihydrochloride] | 1810
Cc1nccn1CCCC(=NOCCN)c1ccccc1 [4-(2-Methyl-1-(1H)-imidazolyl)-1-phenyl-1-butanone O-(2-aminoethyl)oxime dihydrochloride] | 656
